Earlier results in patent publication US20200020419A1, “METHODS OF ANALYZING CELLS” (Flagship Pioneering Innovations VI, LLC., priority 2018, published 2020).

Row | SMILES | induction of transition of a mouse progenitor cell into a mouse neuron, known in the literature (mouse “progenitor” cell) | induction of transition of a MEF into a mouse progenitor cell, known in the literature (MEF)
1 | Cc1ccc(-c2nn(C(C)(C)C)c3ncnc(N)c23)cc1 [PP1] | known in the literature to be associated with induction of transition of a mouse “progenitor” cell into a mouse neuron | 
2 | CC(/C=C/C(=O)NO)=C\[C@@H](C)C(=O)c1ccc(N(C)C)cc1 [Trichostatin A] |  | known in the literature to be associated with induction of transition of a MEF into a mouse “progenitor” cell
3 | CC(C)(C)n1nc(-c2ccc(Cl)cc2)c2c(N)ncnc21 [PP2] | known in the literature to be associated with induction of transition of a mouse “progenitor” cell into a mouse neuron | 
